Where a name gives a salt, the structure may show the parent alone.
Experiments:
MCF7 [1] = assay: Anticancer activity against human MCF7 cells assessed as inhibition of cell growth; format: functional, cell-based
MDA-MB-468 [2] = assay: Anticancer activity against human MDA-MB-468 cells assessed as inhibition of cell growth incubated for 48 hrs by SRB assay; format: functional
MCF7 [3] = assay: Anticancer activity against human MCF7 cells assessed as inhibition of cell growth incubated for 48 hrs by SRB assay; format: functional
MDA-MB-435 [4] = assay: Anticancer activity against human MDA-MB-435 cells assessed as inhibition of cell growth incubated for 48 hrs by SRB assay; format: functional
NCI-H226 [5] = assay: Anticancer activity against human NCI-H226 cells assessed as inhibition of cell growth incubated for 48 hrs by SRB assay; format: functional
MDA-MB-468 [6] = assay: Anticancer activity against human MDA-MB-468 cells assessed as cell growth at 0.1 uM incubated for 48 hrs by SRB assay; format: functional; conditions: read-out: Activity
MDA-MB-468 [7] = assay: Anticancer activity against human MDA-MB-468 cells assessed as cell growth at 1 uM incubated for 48 hrs by SRB assay; format: functional; conditions: read-out: Activity
MDA-MB-468 [8] = assay: Anticancer activity against human MDA-MB-468 cells assessed as cell growth at 10 uM incubated for 48 hrs by SRB assay; format: functional; conditions: read-out: Activity
MDA-MB-468 [9] = assay: Anticancer activity against human MDA-MB-468 cells assessed as cell growth at 100 uM incubated for 48 hrs by SRB assay; format: functional; conditions: read-out: Activity
MCF7 [10] = assay: Anticancer activity against human MCF7 cells assessed as cell growth at 0.1 uM incubated for 48 hrs by SRB assay; format: functional; conditions: read-out: Activity
MCF7 [11] = assay: Anticancer activity against human MCF7 cells assessed as cell growth at 1 uM incubated for 48 hrs by SRB assay; format: functional; conditions: read-out: Activity
MCF7 [12] = assay: Anticancer activity against human MCF7 cells assessed as cell growth at 10 uM incubated for 48 hrs by SRB assay; format: functional; conditions: read-out: Activity
MCF7 [13] = assay: Anticancer activity against human MCF7 cells assessed as cell growth at 100 uM incubated for 48 hrs by SRB assay; format: functional; conditions: read-out: Activity
NCI-H226 [14] = assay: Anticancer activity against human NCI-H226 cells assessed as cell growth at 0.1 uM incubated for 48 hrs by SRB assay; format: functional; conditions: read-out: Activity
NCI-H226 [15] = assay: Anticancer activity against human NCI-H226 cells assessed as cell growth at 1 uM incubated for 48 hrs by SRB assay; format: functional; conditions: read-out: Activity
NCI-H226 [16] = assay: Anticancer activity against human NCI-H226 cells assessed as cell growth at 10 uM incubated for 48 hrs by SRB assay; format: functional; conditions: read-out: Activity
NCI-H226 [17] = assay: Anticancer activity against human NCI-H226 cells assessed as cell growth at 100 uM incubated for 48 hrs by SRB assay; format: functional; conditions: read-out: Activity
MDA-MB-435 [18] = assay: Anticancer activity against human MDA-MB-435 cells assessed as cell growth at 0.1 uM incubated for 48 hrs by SRB assay; format: functional; conditions: read-out: Activity
MDA-MB-435 [19] = assay: Anticancer activity against human MDA-MB-435 cells assessed as cell growth at 1 uM incubated for 48 hrs by SRB assay; format: functional; conditions: read-out: Activity
MDA-MB-435 [20] = assay: Anticancer activity against human MDA-MB-435 cells assessed as cell growth at 10 uM incubated for 48 hrs by SRB assay; format: functional; conditions: read-out: Activity
MDA-MB-435 [21] = assay: Anticancer activity against human MDA-MB-435 cells assessed as cell growth at 100 uM incubated for 48 hrs by SRB assay; format: functional; conditions: read-out: Activity
[22] = read-out: LC50 (the source's name)

For `COc1ccc(-c2nc3cc(F)ccc3s2)cc1I`, the IC50 (MCF7 [1]) was 0.82 µM.
Work on `O=c1c(-c2ccc(Br)cc2)coc2ccccc12` yielded an IC50 (MCF7 [1]) of 8.8 µM.
`COc1ccc(-c2nc3cc(F)ccc3s2)cc1Br` showed an IC50 (MCF7 [1]) of 0.85 µM.
In the case of `COc1cccc2c1C(=O)c1c(O)c3c(c(O)c1C2=O)C[C@@](O)(C(=O)CO)C[C@@H]3O[C@H]1C[C@H](N)[C@H](O)[C@H](C)O1` [DOXORUBICIN HYDROCHLORIDE], the GI50 (MDA-MB-468 [2]) is reported as 10.5 µM, the TGI (MDA-MB-468 [2]) is reported as 50.4 µM and the CC50 (MDA-MB-468 [2]; [22]) is reported as 90.2 µM. The GI50 (MCF7 [3]) was < 0.1 µM, the TGI (MCF7 [3]) was 90.4 µM and the CC50 (MCF7 [3]; [22]) was > 100 µM. The GI50 (MDA-MB-435 [4]) was < 0.1 µM, the TGI (MDA-MB-435 [4]) was 43.4 µM and the GI50 (NCI-H226 [5]) was < 0.1 µM. For the same compound, the TGI (NCI-H226 [5]) was 43.2 µM, the growth at 0.1 µM (MDA-MB-468 [6]) was 83% and the growth at 1 µM (MDA-MB-468 [7]) was 64.5%. It also gave a growth at 10 µM (MDA-MB-468 [8]) of 22%, a growth at 100 µM (MDA-MB-468 [9]) of -60.9% and a growth at 0.1 µM (MCF7 [10]) of 28.5%. It also gave a growth at 1 µM (MCF7 [11]) of 17.2%, a growth at 10 µM (MCF7 [12]) of 10.5% and a growth at 100 µM (MCF7 [13]) of -1.6%. For the same compound, the growth at 0.1 µM (NCI-H226 [14]) was 57.4%, the growth at 1 µM (NCI-H226 [15]) was 12.7% and the growth at 10 µM (NCI-H226 [16]) was 8.1%. For the same compound, the growth at 100 µM (NCI-H226 [17]) was -38.3%, the growth at 0.1 µM (MDA-MB-435 [18]) was 50.8% and the growth at 1 µM (MDA-MB-435 [19]) was 42.8%. The growth at 10 µM (MDA-MB-435 [20]) was -26.6% and the growth at 100 µM (MDA-MB-435 [21]) was -30.9%.
With `COc1ccc(-c2cc(=O)c3ccc(F)cc3o2)cc1OC` the IC50 (MCF7 [1]) was 27.9 µM.
With `COc1ccc(-c2coc3c(F)cc(F)cc3c2=O)cc1OC` the IC50 (MCF7 [1]) was 46.7 µM.
With `COc1cc(-c2nc3cc(F)ccc3o2)cc(OC)c1OC` the IC50 (MCF7 [1]) was 16 µM.
`CS(=O)(=O)c1ccc2nc(-c3ccc(O)cc3)sc2c1` was tested, and the IC50 (MCF7 [1]) was 62.3 µM.
In the case of `COc1cc(-c2nc3cc(F)ccc3s2)cc(OC)c1OC`, the IC50 (MCF7 [1]) is reported as 0.0019 µM.
Compound `Oc1ccc(-c2nc3cc(F)ccc3s2)cc1O` has an IC50 (MCF7 [1]) of 0.72 µM.
Compound `Cc1cc(-c2nc3cc(F)ccc3s2)ccc1N` has an IC50 (MCF7 [1]) of 0.0001 µM.
Work on `COc1ccc(-c2nc3cc(F)ccc3s2)cc1` yielded an IC50 (MCF7 [1]) of 0.49 µM.
`COc1ccc(-c2coc3ccc(F)cc3c2=O)cc1OC` showed an IC50 (MCF7 [1]) of 93.1 µM.
Work on `COc1cccc(OC)c1-c1nc2cc(F)ccc2o1` yielded an IC50 (MCF7 [1]) of 58.1 µM.
Work on `COc1cccc(OC)c1-c1nc2ccc(F)cc2o1` yielded an IC50 (MCF7 [1]) of 90.7 µM.
`Cc1c(F)c(N)c2c(=O)cc(-c3ccc(N)c(F)c3)oc2c1F` [AMINOFLAVONE] showed an IC50 (MCF7 [1]) of 0.035 µM.
In the case of `Oc1ccc(-c2nc3cc(F)ccc3s2)cc1`, the IC50 (MCF7 [1]) is reported as 0.4 µM.
With `COc1ccccc1-c1nc2ccc(F)cc2s1` the IC50 (MCF7 [1]) was 0.82 µM.
In the case of `COc1cccc(-c2nc3ccc(F)cc3o2)c1`, the IC50 (MCF7 [1]) is reported as 35.1 µM.
`COc1ccc(-c2nc3cc(F)ccc3s2)cc1Cl` showed an IC50 (MCF7 [1]) of 0.76 µM.
`COc1cc(-c2nc3ccc(F)cc3o2)cc(OC)c1OC` showed an IC50 (MCF7 [1]) of 1.09 µM.
Compound `COc1ccc(-c2nc3cc(Br)ccc3s2)cc1OC` has an IC50 (MCF7 [1]) of 13.6 µM.
Work on `Fc1ccc2sc(-c3ccc4c(c3)OCO4)nc2c1` yielded an IC50 (MCF7 [1]) of 20.7 µM.
In the case of `COc1cccc(-c2nc3cc(F)ccc3o2)c1`, the IC50 (MCF7 [1]) is reported as 39.5 µM.
With `CCOc1ccc(-c2nc3cc(F)ccc3s2)cc1OCC` the IC50 (MCF7 [1]) was 0.0007 µM.
With `CCOc1cc(-c2nc3cc(F)ccc3s2)ccc1OC` the IC50 (MCF7 [1]) was 0.08 µM.
For `COc1ccc(-c2cc(=O)c3cc(F)ccc3o2)cc1OC`, the IC50 (MCF7 [1]) was 83.4 µM.
For `c1ccc2sc(-c3ccc4c(c3)OCO4)nc2c1`, the IC50 (MCF7 [1]) was 57.8 µM.
With `COc1cc(OC)cc(-c2nc3ccc(F)cc3o2)c1` the IC50 (MCF7 [1]) was 3.72 µM.
For `COc1ccc(-c2coc3c(F)c(F)ccc3c2=O)cc1OC`, the IC50 (MCF7 [1]) was 47.2 µM.
Compound `COc1ccc(-c2nc3ccc(F)cc3o2)c(OC)c1` has an IC50 (MCF7 [1]) of 69.9 µM.
`Fc1ccc2nc(-c3ccc4c(c3)OCO4)oc2c1` gave an IC50 (MCF7 [1]) of 19.2 µM.
For `COc1ccc(-c2nc3cc(F)ccc3s2)c(OC)c1OC`, the IC50 (MCF7 [1]) was 0.023 µM.
`O=c1c(-c2ccc3c(c2)OCO3)coc2ccc(F)cc12` showed an IC50 (MCF7 [1]) of 60 µM.
Work on `COc1ccc(-c2nc3ccc(F)cc3s2)cc1OC` yielded an IC50 (MCF7 [1]) of 0.062 µM.
Work on `COc1cc(OC)cc(-c2nc3cc(F)ccc3s2)c1` yielded an IC50 (MCF7 [1]) of 1.23 µM.
Compound `Oc1cccc(-c2nc3cc(F)ccc3s2)c1` has an IC50 (MCF7 [1]) of 0.57 µM.
`COc1ccc(-c2coc3cc(F)ccc3c2=O)cc1` was tested, and the IC50 (MCF7 [1]) was 43.8 µM.
`Cc1ccc(-c2nc3cc(F)ccc3s2)cc1O` was tested, and the IC50 (MCF7 [1]) was 0.5 µM.
Work on `COc1ccc(-c2nc3cc(Cl)ccc3s2)cc1OC` yielded an IC50 (MCF7 [1]) of 27.9 µM.
In the case of `COc1ccc(-c2coc3c(F)cccc3c2=O)cc1OC`, the IC50 (MCF7 [1]) is reported as 75.5 µM.
For `O=c1c(-c2ccc(Cl)cc2)coc2ccccc12`, the IC50 (MCF7 [1]) was 64.9 µM.
`COc1ccc(-c2nc3cc(F)ccc3s2)cc1C` was tested, and the IC50 (MCF7 [1]) was 0.048 µM.
`COc1ccc(-c2nc3cc(F)ccc3o2)cc1OC` was tested, and the IC50 (MCF7 [1]) was 0.83 µM.
Compound `COc1cc(OC)cc(-c2nc3cc(F)ccc3o2)c1` has an IC50 (MCF7 [1]) of 45.4 µM.
`COc1ccc(-c2nc3ccccc3s2)cc1OC` showed an IC50 (MCF7 [1]) of 52.7 µM.
With `COc1ccc(-c2nc3cc(F)ccc3s2)cc1F` the IC50 (MCF7 [1]) was 0.87 µM.
Work on `Oc1ccc(-c2nc3ccc(Cl)cc3s2)cc1` yielded an IC50 (MCF7 [1]) of 26.5 µM.
`Oc1ccc(-c2nc3ccc(Br)cc3s2)cc1` gave an IC50 (MCF7 [1]) of 4.16 µM.
For `COc1ccc(-c2nc3ccc(F)cc3o2)cc1`, the IC50 (MCF7 [1]) was 41 µM.
With `COc1ccc(-c2nc3c(F)cccc3s2)cc1OC` the IC50 (MCF7 [1]) was 0.005 µM.
`COc1ccccc1-c1nc2cc(F)ccc2o1` showed an IC50 (MCF7 [1]) of 0.36 µM.
In the case of `COCOc1ccc(-c2nc3cc(F)ccc3s2)cc1OC`, the IC50 (MCF7 [1]) is reported as 0.065 µM.
For `O=c1c(-c2cccc([N+](=O)[O-])c2)coc2ccccc12`, the IC50 (MCF7 [1]) was 7.9 µM.
`COc1ccc2nc(-c3ccc(O)cc3)sc2c1` was tested, and the IC50 (MCF7 [1]) was 45.8 µM.
For `COc1cc(-c2nc3cc(F)ccc3s2)cc(O)c1OC`, the IC50 (MCF7 [1]) was 0.653 µM.
Work on `COc1ccc(-c2coc3ccccc3c2=O)cc1OC` yielded an IC50 (MCF7 [1]) of 88.1 µM.
For `Fc1ccc2oc(-c3ccc4c(c3)OCO4)nc2c1`, the IC50 (MCF7 [1]) was 61.4 µM.
For `COc1ccc(-c2coc3cc(F)ccc3c2=O)cc1OC`, the IC50 (MCF7 [1]) was 90.6 µM.
Compound `COc1ccc(-c2coc3ccccc3c2=O)cc1` has an IC50 (MCF7 [1]) of 81.4 µM.
`COc1ccc(-c2coc3cc(F)c(F)cc3c2=O)cc1OC` gave an IC50 (MCF7 [1]) of 41.5 µM.
With `COc1ccc(-c2nc3cc(F)ccc3o2)cc1` the IC50 (MCF7 [1]) was 22.7 µM.
Work on `Oc1ccc(-c2nc3cc(C(F)(F)F)ccc3s2)cc1` yielded an IC50 (MCF7 [1]) of 13.8 µM.
